Laboratory results taken from ChEMBL document CHEMBL4014294, “Synthesis and in vitro investigation of potential antiproliferative monosaccharide-d-secoestrone bioconjugates” (Bioorg Med Chem Lett, 2017).

Experiments:
[1] = Growth inhibition of mouse NIH/3T3 cells at 30 uM after 72 hrs by MTT assay relative to control; type: cell-based, NIH3T3; details: read-out: GI
MCF7 [2] = test: Growth inhibition of human MCF7 cells at 30 uM after 72 hrs by MTT assay relative to control; type: functional; details: MCF7, 72 h, read-out: GI
HeLa [3] = test: Growth inhibition of human HeLa cells at 10 uM after 72 hrs by MTT assay relative to control; type: functional; details: read-out: GI
MCF7 [4] = test: Antiproliferative activity against human MCF7 cells after 72 hrs by MTT assay; type: functional, cell-based; details: MCF7, 72 h
A2780 [5] = test: Growth inhibition of human A2780 cells at 30 uM after 72 hrs by MTT assay relative to control; type: functional; details: A2780, 72 h, read-out: GI
HeLa [6] = test: Growth inhibition of human HeLa cells at 30 uM after 72 hrs by MTT assay relative to control; type: functional; details: read-out: GI
A2780 [7] = test: Antiproliferative activity against human A2780 cells after 72 hrs by MTT assay; type: functional, cell-based; details: A2780, 72 h
[8] = Growth inhibition of mouse NIH/3T3 cells at 10 uM after 72 hrs by MTT assay relative to control; type: cell-based, NIH3T3; details: read-out: GI
MCF7 [9] = test: Growth inhibition of human MCF7 cells at 10 uM after 72 hrs by MTT assay relative to control; type: functional; details: MCF7, 72 h, read-out: GI
A2780 [10] = test: Growth inhibition of human A2780 cells at 10 uM after 72 hrs by MTT assay relative to control; type: functional; details: A2780, 72 h, read-out: GI
HeLa [11] = test: Antiproliferative activity against human HeLa cells after 72 hrs by MTT assay; type: functional, cell-based

Compound | inhibition at 72 h, 30 µM [1] [%] | inhibition of growth at 30 µM (MCF7 [2]) [%] | inhibition of growth at 10 µM (HeLa [3]) [%] | IC50 (MCF7 [4]) [µM] | inhibition of growth at 30 µM (A2780 [5]) [%] | inhibition of growth at 30 µM (HeLa [6]) [%] | IC50 (A2780 [7]) [µM] | inhibition at 72 h, 10 µM [8] [%] | inhibition of growth at 10 µM (MCF7 [9]) [%] | inhibition of growth at 10 µM (A2780 [10]) [%] | IC50 (HeLa [11]) [µM]
CCC[C@H]1[C@@H]2CCc3cc(OCc4cn([C@@H]5O[C@H](COC(C)=O)[C@@H](OC(C)=O)[C@H](OC(C)=O)[C@H]5OC(C)=O)nn4)ccc3[C@H]2CC[C@]1(C)/C=N/O | 28.4 | 67.7 | 20.4 | 10.7 | 76.7 | 40 | 5.3 | < 20 | 46.7 | 69.5 | > 30
CCC[C@H]1[C@@H]2CCc3cc(OCc4cn([C@@H]5O[C@H](COC(C)=O)[C@@H](OC(C)=O)[C@H](OC(C)=O)[C@H]5OC(C)=O)nn4)ccc3[C@H]2CC[C@]1(C)CO |  | 45.5 | 34.5 |  | 19.5 | 23.9 |  |  | 27.4 | 21 | 
CCC[C@H]1[C@@H]2CCc3cc(OCc4cn(C[C@H]5O[C@@H](OC)[C@H](OC(=O)c6ccccc6)[C@@H]5OC(=O)c5ccccc5)nn4)ccc3[C@H]2CC[C@]1(C)/C=N/O |  | < 20 | 24.3 |  | < 20 | < 20 |  |  | < 20 | < 20 | 
CCC[C@H]1[C@@H]2CCc3cc(OCc4cn([C@@H]5O[C@H](CO)[C@@H](O)[C@H](O)[C@H]5O)nn4)ccc3[C@H]2CC[C@]1(C)CO |  | < 20 | < 20 |  | < 20 | < 20 |  |  | < 20 | < 20 | 
CCC[C@H]1[C@@H]2CCc3cc(OCc4cn([C@@H]5O[C@H](COC(C)=O)[C@H](OC(C)=O)[C@H](OC(C)=O)[C@H]5OC(C)=O)nn4)ccc3[C@H]2CC[C@]1(C)CO |  | 61.9 | 23.9 |  | 32.7 | 31.8 |  |  | < 20 | < 20 | 
CCC[C@H]1[C@@H]2CCc3cc(OCc4cn(C[C@H]5O[C@H](OC)[C@@H](OC(=O)c6ccccc6)[C@@H](OC(=O)c6ccccc6)[C@@H]5OC(=O)c5ccccc5)nn4)ccc3[C@H]2CC[C@]1(C)/C=N/O |  | < 20 | < 20 |  | < 20 | < 20 |  |  | < 20 | < 20 | 
CCC[C@H]1[C@@H]2CCc3cc(OCc4cn([C@@H]5O[C@H](CO)[C@@H](O)[C@H](O)[C@H]5O)nn4)ccc3[C@H]2CC[C@]1(C)/C=N/O |  | < 20 | < 20 | > 30 | 57.9 | 31.5 | 27.4 |  | < 20 | < 20 | > 30
CCC[C@H]1[C@@H]2CCc3cc(OCc4cn([C@H]5O[C@H](COC(C)=O)[C@@H](OC(C)=O)[C@H](OC(C)=O)[C@@H]5OC(C)=O)nn4)ccc3[C@H]2CC[C@]1(C)/C=N/O | 34.8 | 65.9 | 52.4 | 9.4 | 86.4 | 89.6 | 6.6 | 27.3 | 53.9 | 69.5 | 8.9
CCC[C@H]1[C@@H]2CCc3cc(OCc4cn([C@@H]5O[C@H](COC(C)=O)[C@H](OC(C)=O)[C@H](OC(C)=O)[C@H]5OC(C)=O)nn4)ccc3[C@H]2CC[C@]1(C)/C=N/O | 25.5 | 71.5 | 31.5 | 8 | 85.2 | 61.9 | 8.8 | < 20 | 59.1 | 59.3 | 20.5
CCC[C@H]1[C@@H]2CCc3cc(OCc4cn(C[C@H]5O[C@@H](OC)[C@H](OC(=O)c6ccccc6)[C@@H]5OC(=O)c5ccccc5)nn4)ccc3[C@H]2CC[C@]1(C)CO |  | < 20 | < 20 |  | < 20 | < 20 |  |  | < 20 | < 20 | 
CCC[C@H]1[C@@H]2CCc3cc(OCc4cn(C[C@H]5O[C@H](OC)[C@@H](OC(=O)c6ccccc6)[C@@H](OC(=O)c6ccccc6)[C@@H]5OC(=O)c5ccccc5)nn4)ccc3[C@H]2CC[C@]1(C)CO |  | < 20 | < 20 |  | < 20 | < 20 |  |  | < 20 | < 20 | 
CCC[C@H]1[C@@H]2CCc3cc(OCc4cn(C[C@H]5O[C@H](OC)[C@H](OC(=O)c6ccccc6)[C@@H](OC(=O)c6ccccc6)[C@@H]5OC(=O)c5ccccc5)nn4)ccc3[C@H]2CC[C@]1(C)/C=N/O |  | < 20 | < 20 |  | 45.7 | < 20 |  |  | < 20 | 28.4 | 
CCC[C@H]1[C@@H]2CCc3cc(OCc4cn([C@H]5O[C@H](COC(C)=O)[C@@H](OC(C)=O)[C@H](OC(C)=O)[C@@H]5OC(C)=O)nn4)ccc3[C@H]2CC[C@]1(C)CO |  | 54.3 | 51.9 |  | 36.5 | 41.5 |  |  | 26.3 | 34.9 | 
CCC[C@H]1[C@@H]2CCc3cc(OCc4cn(C[C@H]5O[C@H](OC)[C@H](OC(=O)c6ccccc6)[C@@H](OC(=O)c6ccccc6)[C@@H]5OC(=O)c5ccccc5)nn4)ccc3[C@H]2CC[C@]1(C)CO |  | < 20 | < 20 |  | < 20 | < 20 |  |  | < 20 | < 20 | 
